Data as given in PubChem BioAssay AID226 (DTP/NCI, 2004).
Values joined by “and” are separate entries in the source; they are usually repeats but may differ in a detail not shown here. Equal values may be shown once. Inconclusive results and toxic doses are left out.

Tested on: B6C3F1 mice, intracerebral ependymoblastoma, median survival T/C
Experiment: NCI In Vivo Anticancer Drug Screen. Data for tumor model Ependymoblastoma (intracerebral) in B6C3F1 mice
Conditions: endpoint: median survival time, higher = longer survival
Experimental: The antitumor activity of compounds was measured in mice bearing transplantable tumors. Survival or tumor size were measured and the results are expressed as the measurement made in the treated group (T) divided by the measurement made in the vehicle treated control group (C). The tumor model used in this assay is Ependymoblastoma (intracerebral) in B6C3F1 mice

[1] = dose: 4.0 mg/kg/injection, schedule: Q01DX005 (ip), vehicle: saline
[2] = dose: 25.0 mg/kg/injection, schedule: Q01DX005 (ip), vehicle: saline
[3] = dose: 50.0 mg/kg/injection, schedule: Q01DX005 (ip), vehicle: saline
[4] = dose: 400.0 mg/kg/injection, schedule: Q01DX005 (ip), vehicle: saline
[5] = dose: 32.0 mg/kg/injection, schedule: Q01DX005 (ip), vehicle: Klucel (hydroxypropylcellulose) (HPC)
[6] = dose: 128.0 mg/kg/injection, schedule: Q01DX005 (ip), vehicle: Klucel (hydroxypropylcellulose) (HPC)
[7] = dose: 32.0 mg/kg/injection, schedule: Q01DX005 (ip), vehicle: saline
[8] = dose: 100.0 mg/kg/injection, schedule: Q01DX005 (ip), vehicle: saline
[9] = dose: 200.0 mg/kg/injection, schedule: Q01DX005 (ip), vehicle: saline
[10] = dose: 50.0 mg/kg/injection, schedule: Q01DX005 (ip), vehicle: saline with Tween-80
[11] = dose: 16.0 mg/kg/injection, schedule: Q01DX005 (ip), vehicle: saline with Tween-80
[12] = dose: 32.0 mg/kg/injection, schedule: Q01DX005 (ip), vehicle: saline with Tween-80
[13] = dose: 12.5 mg/kg/injection, schedule: Q01DX005 (ip), vehicle: saline with Tween-80

SMILES: COc1cccc2c1C(=O)c1c(O)c3c(c(O)c1C2=O)C[C@@](O)(C(=O)CO)C[C@@H]3OC1CC(N)C(O)C(C)O1 (some centres undefined)
- T/C (dose: 0.06 mg/kg/injection, schedule: Q03HX008 (ip), vehicle: saline): 104 % of control
- T/C (dose: 0.12 mg/kg/injection, schedule: Q01DX005 (ip), vehicle: water): 96 % of control
- T/C (dose: 0.12 mg/kg/injection, schedule: Q03HX008 (ip), vehicle: saline): 100 % of control and 113 % of control
- T/C (dose: 0.25 mg/kg/injection, schedule: Q01DX005 (ip), vehicle: saline): 94 % of control and 113 % of control and 114 % of control
- T/C (dose: 0.25 mg/kg/injection, schedule: Q01DX005 (ip), vehicle: water): 102 % of control
- T/C (dose: 0.25 mg/kg/injection, schedule: Q03HX008 (ip), vehicle: saline): 106 % of control and 120 % of control
- T/C (dose: 0.5 mg/kg/injection, schedule: Q01DX005 (ip), vehicle: saline): 103 % of control and 105 % of control and 114 % of control
- T/C (dose: 0.5 mg/kg/injection, schedule: Q01DX005 (ip), vehicle: suspension in saline): 103 % of control
- T/C (dose: 0.5 mg/kg/injection, schedule: Q01DX005 (ip), vehicle: water): 92 % of control and 113 % of control
- T/C (dose: 0.5 mg/kg/injection, schedule: Q03HX008 (ip), vehicle: saline): 114 % of control
- T/C (dose: 1.0 mg/kg/injection, schedule: Q01DX005 (ip), vehicle: saline): 109 % of control and 110 % of control and 116 % of control
- T/C (dose: 1.0 mg/kg/injection, schedule: Q01DX005 (ip), vehicle: suspension in saline): 108 % of control
- T/C (dose: 1.0 mg/kg/injection, schedule: Q01DX005 (ip), vehicle: water): 102 % of control and 116 % of control
- T/C (dose: 2.0 mg/kg/injection, schedule: Q01DX005 (ip), vehicle: saline): 116 % of control and 118 % of control
- T/C (dose: 2.0 mg/kg/injection, schedule: Q01DX005 (ip), vehicle: suspension in saline): 121 % of control
- T/C (dose: 2.0 mg/kg/injection, schedule: Q01DX005 (ip), vehicle: water): 107 % of control and 113 % of control
- T/C (dose: 4.0 mg/kg/injection, schedule: Q01DX001 (oral), vehicle: saline): 100 % of control
- T/C [1]: 100 % of control and 118 % of control and 86 % of control
- T/C (dose: 8.0 mg/kg/injection, schedule: Q01DX001 (oral), vehicle: saline): 96 % of control
- T/C (dose: 16.0 mg/kg/injection, schedule: Q01DX001 (oral), vehicle: saline): 103 % of control
- T/C (dose: 32.0 mg/kg/injection, schedule: Q01DX001 (oral), vehicle: saline): 89 % of control

SMILES: COC1OC(CNC(=O)N(C)N=O)C(O)C(O)C1O (centres undefined)
- T/C [2]: 124 % of control
- T/C [3]: 121 % of control
- T/C [4]: 164 % of control

SMILES: CCC(=O)O[C@H]1CC[C@H]2[C@@H]3CCC4=CC(=O)CC[C@]4(C)[C@H]3CC[C@]12C
- T/C (dose: 8.0 mg/kg/injection, schedule: Q01DX005 (ip), vehicle: Klucel (hydroxypropylcellulose) (HPC)): 97 % of control and 100 % of control
- T/C (dose: 16.0 mg/kg/injection, schedule: Q01DX005 (ip), vehicle: Klucel (hydroxypropylcellulose) (HPC)): 101 % of control and 87 % of control
- T/C [5]: 101 % of control
- T/C (dose: 64.0 mg/kg/injection, schedule: Q01DX005 (ip), vehicle: Klucel (hydroxypropylcellulose) (HPC)): 106 % of control
- T/C [6]: 102 % of control and 87 % of control
- T/C (dose: 256.0 mg/kg/injection, schedule: Q01DX005 (ip), vehicle: Klucel (hydroxypropylcellulose) (HPC)): 95 % of control
- T/C (dose: 512.0 mg/kg/injection, schedule: Q01DX005 (ip), vehicle: Klucel (hydroxypropylcellulose) (HPC)): 95 % of control and 86 % of control

SMILES: CN(CCO)/N=N/c1nc[nH]c1C(N)=O
- T/C [7]: 116 % of control
- T/C (dose: 64.0 mg/kg/injection, schedule: Q01DX005 (ip), vehicle: saline): 109 % of control and 112 % of control
- T/C (dose: 128.0 mg/kg/injection, schedule: Q01DX005 (ip), vehicle: saline): 114 % of control
- T/C (dose: 256.0 mg/kg/injection, schedule: Q01DX005 (ip), vehicle: saline): 124 % of control

SMILES: CN(C)C=O
- T/C [3]: 92 % of control and 112 % of control
- T/C [8]: 96 % of control and 98 % of control and 115 % of control
- T/C [9]: 94 % of control and 99 % of control and 109 % of control
- T/C [4]: 94 % of control and 99 % of control and 113 % of control
- T/C (dose: 800.0 mg/kg/injection, schedule: Q01DX005 (ip), vehicle: saline): 93 % of control and 102 % of control and 105 % of control
- T/C (dose: 1600.0 mg/kg/injection, schedule: Q01DX005 (ip), vehicle: saline): 93 % of control
- T/C (dose: 2400.0 mg/kg/injection, schedule: Q01DX005 (ip), vehicle: saline): 97 % of control

SMILES: CCSc1ncnc2c1ncn2C1OC(CO)C(O)C1O (centres undefined)
- T/C [10]: 100 % of control and 106 % of control and 122 % of control
- T/C (dose: 100.0 mg/kg/injection, schedule: Q01DX005 (ip), vehicle: saline with Tween-80): 103 % of control and 106 % of control
- T/C (dose: 200.0 mg/kg/injection, schedule: Q01DX005 (ip), vehicle: saline with Tween-80): 107 % of control and 109 % of control

SMILES: CN(C)N=Nc1ccc(C(N)=O)cc1
- T/C [11]: 156 % of control
- T/C [12]: 162 % of control

SMILES: NC(=S)c1cn(C2OC(CO)C(O)C2O)c2ncnc(N)c12 (centres undefined)
- T/C (dose: 1.88 mg/kg/injection, schedule: Q01DX005 (ip), vehicle: suspension in saline): 94 % of control
- T/C (dose: 3.75 mg/kg/injection, schedule: Q01DX005 (ip), vehicle: suspension in saline): 97 % of control
- T/C (dose: 7.5 mg/kg/injection, schedule: Q01DX005 (ip), vehicle: suspension in saline): 108 % of control

SMILES: CCCCCCCCN(C)/N=N/c1nc[nH]c1C(N)=O
- T/C (dose: 8.0 mg/kg/injection, schedule: Q01DX005 (ip), vehicle: saline with Tween-80): 119 % of control
- T/C [11]: 122 % of control and 123 % of control
- T/C [12]: 113 % of control
- T/C (dose: 64.0 mg/kg/injection, schedule: Q01DX005 (ip), vehicle: saline with Tween-80): 111 % of control

SMILES: CN(N=O)C(=O)Nc1c[nH]c(=O)[nH]c1=O
- T/C [11]: 114 % of control

SMILES: Nc1nc(=S)c2ncn(C3OC(COC(=O)c4ccccc4)C(OC(=O)c4ccccc4)C3OC(=O)c3ccccc3)c2[nH]1 (centres undefined)
- T/C [13]: 100 % of control
- T/C (dose: 25.0 mg/kg/injection, schedule: Q01DX005 (ip), vehicle: saline with Tween-80): 100 % of control
- T/C [10]: 105 % of control

SMILES: CC(C)c1cc(C(=O)O)c(O)c(C(C)C)c1.CC(C)c1cc(C(=O)O)c(O)c(C(C)C)c1.[Cu]
- T/C (dose: 6.25 mg/kg/injection, schedule: Q01DX005 (ip), vehicle: saline with Tween-80): 103 % of control
- T/C [13]: 103 % of control

SMILES: CC(CN1CC(=O)NC(=O)C1)N1CC(=O)NC(=O)C1 (centres undefined)
- T/C (dose: 8.0 mg/kg/injection, schedule: Q01DX001 (ip), vehicle: Klucel (hydroxypropylcellulose) (HPC)): 101 % of control and 102 % of control
- T/C (dose: 16.0 mg/kg/injection, schedule: Q01DX001 (ip), vehicle: Klucel (hydroxypropylcellulose) (HPC)): 104 % of control and 86 % of control
- T/C (dose: 32.0 mg/kg/injection, schedule: Q01DX001 (ip), vehicle: Klucel (hydroxypropylcellulose) (HPC)): 101 % of control and 102 % of control
- T/C (dose: 64.0 mg/kg/injection, schedule: Q01DX001 (ip), vehicle: Klucel (hydroxypropylcellulose) (HPC)): 103 % of control and 109 % of control
- T/C (dose: 128.0 mg/kg/injection, schedule: Q01DX001 (ip), vehicle: Klucel (hydroxypropylcellulose) (HPC)): 99 % of control and 103 % of control

SMILES: O=c1[nH]c(=O)n(C2CC(O)C(CO)O2)cc1C(F)(F)F (centres undefined)
- T/C [5]: 102 % of control
- T/C [6]: 97 % of control

SMILES: COc1c(C)c2c(c(O)c1C/C=C(\C)CCC(=O)O)C(=O)OC2
- T/C (dose: 12.5 mg/kg/injection, schedule: Q01DX005 (ip), vehicle: saline): 101 % of control
- T/C [2]: 105 % of control
- T/C [3]: 100 % of control
- T/C [8]: 98 % of control
- T/C [9]: 102 % of control
- T/C [4]: 98 % of control

SMILES: OCC1OC(n2cnc3c(SCc4ccccc4)ncnc32)C(O)C1O (centres undefined)
- T/C (dose: 37.5 mg/kg/injection, schedule: Q01DX005 (ip), vehicle: saline with Tween-80): 97 % of control
- T/C (dose: 75.0 mg/kg/injection, schedule: Q01DX005 (ip), vehicle: saline with Tween-80): 106 % of control
- T/C (dose: 150.0 mg/kg/injection, schedule: Q01DX005 (ip), vehicle: saline with Tween-80): 120 % of control

SMILES: CCC1=C(c2ccc(OC)cc2)CCC(C(=O)O)C1C (centres undefined)
- T/C [1]: 102 % of control
- T/C (dose: 8.0 mg/kg/injection, schedule: Q01DX005 (ip), vehicle: saline): 102 % of control
- T/C (dose: 16.0 mg/kg/injection, schedule: Q01DX005 (ip), vehicle: saline): 102 % of control
- T/C [7]: 103 % of control

SMILES: COC(=O)c1ccc(N=NN(C)C)cc1
- T/C (dose: 8.0 mg/kg/injection, schedule: Q01DX005 (ip), vehicle: saline + alcohol): 114 % of control
- T/C (dose: 16.0 mg/kg/injection, schedule: Q01DX005 (ip), vehicle: saline + alcohol): 114 % of control
- T/C (dose: 128.0 mg/kg/injection, schedule: Q01DX005 (ip), vehicle: saline + alcohol): 160 % of control and 164 % of control
- T/C (dose: 256.0 mg/kg/injection, schedule: Q01DX005 (ip), vehicle: saline + alcohol): 100 % of control
